Our source for the pest or weed control values is US20220125051A1, “PRE-HARVEST DESICCATION METHOD” (SYNGENTA CROP PROTECTION AG, priority 2019, published 2022).

Test in all cases: Post-emergence efficacy, Method A
What all share (format): in vivo

In assay [1] the test system is Amaranthus palmeri (AMAPA). To be noted: Amaranthus palmeri, post-emergence, 312 h, evaluated after 13 days, Method A, read-out: Control of weed species after post-emergence application, AMAPA (100=total damage to plant; 0=no damage to plant); for pest or weed control at 500 g/ha: Application Rate 500 g/Ha. Put shortly:
(§1)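 Post-emergence spray on 14-day-old glasshouse plants (24/16 °C day/night, 14 h photoperiod, 65% humidity). Test material was taken up in acetone and IF50 emulsifier mix, then diluted with sodium lauryl ether sulphate (0.25% or 1%) plus 1% ammonium sulphate. Damage was rated 13 days later, 100 = total.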

Assay [2] has as its system Chenopodium album (CHEAL). The following applies: Chenopodium album, post-emergence, 312 h, evaluated after 13 days, Method A, read-out: Control of weed species after post-emergence application, CHEAL (100=total damage to plant; 0=no damage to plant); for pest or weed control at 500 g/ha: Application Rate 500 g/Ha. Put shortly:
as §1

Assay [3] deals with Digitaria sanguinalis (DIGSA). The following applies: Digitaria sanguinalis, post-emergence, 312 h, evaluated after 13 days, Method A, read-out: Control of weed species after post-emergence application, DIGSA (100=total damage to plant; 0=no damage to plant); for pest or weed control at 500 g/ha: Application Rate 500 g/Ha. Put shortly: as §1
In assay [4] the test system is Echinochloa crus-galli (ECHCG). The following applies: Echinochloa crus-galli, post-emergence, 312 h, evaluated after 13 days, Method A, read-out: Control of weed species after post-emergence application, ECHCG (100=total damage to plant; 0=no damage to plant); for pest or weed control at 500 g/ha: Application Rate 500 g/Ha. Put shortly:
as §1

The next assay deals with Eleusine indica (ELEIN). The following applies: Eleusine indica, post-emergence, 312 h, evaluated after 13 days, Method A, read-out: Control of weed species after post-emergence application, ELEIN (100=total damage to plant; 0=no damage to plant); for pest or weed control at 500 g/ha: Application Rate 500 g/Ha. Put shortly: as §1
Assay [5] relates to Euphorbia heterophylla (EPHHL). To be noted: Euphorbia heterophylla, post-emergence, 312 h, evaluated after 13 days, Method A, read-out: Control of weed species after post-emergence application, EPHHL (100=total damage to plant; 0=no damage to plant); for pest or weed control at 500 g/ha: Application Rate 500 g/Ha. Put shortly:
as §1

The test system of assay [6] is Ipomoea hederacea (IPOHE). To be noted: Ipomoea hederacea, post-emergence, 312 h, evaluated after 13 days, Method A, read-out: Control of weed species after post-emergence application, IPOHE (100=total damage to plant; 0=no damage to plant); for pest or weed control at 500 g/ha: Application Rate 500 g/Ha. Put shortly:
as §1

A further assay concerns Lolium perenne (LOLPE). The following applies: Lolium perenne, post-emergence, 312 h, evaluated after 13 days, Method A, read-out: Control of weed species after post-emergence application, LOLPE (100=total damage to plant; 0=no damage to plant); for pest or weed control at 500 g/ha: Application Rate 500 g/Ha. Put shortly: as §1
Another assay deals with Setaria faberi (SETFA). To be noted: Setaria faberi, post-emergence, 312 h, evaluated after 13 days, Method A, read-out: Control of weed species after post-emergence application, SETFA (100=total damage to plant; 0=no damage to plant); for pest or weed control at 500 g/ha: Application Rate 500 g/Ha. Put shortly: as §1

With `N[C@@H](CC[n+]1ccc(-c2ncccn2)cn1)C(=O)O` [Compound A201, [(1S)-1-carboxy-3-(4-pyrimidin-2-ylpyridazin-1-ium-1-yl)propyl]ammonium 2,2,2-trifluoroacetate], the pest or weed control at 500 g/ha in [1] worked out at 100%; in assay [2], 100%; in assay [3], 80%; in assay [4] it was 70%; in the assay on Eleusine indica (ELEIN), 100%; in [5], 90%. The pest or weed control at 500 g/ha in [6] is 40%; with Lolium perenne (LOLPE), 30%; in the assay on Setaria faberi (SETFA), 80%.
`NC(=O)c1cnc(-c2cc[n+](CCC(=O)O)nc2)cn1` [Compound A202, 3-[4-(5-carbamoylpyrazin-2-yl)pyridazin-1-ium-1-yl]propanoic acid 2,2,2-trifluoroacetate]: the pest or weed control at 500 g/ha in assay [1] came out at 100%; in assay [2] it was 90%; in assay [3], 60%; in [4], 80%; with Eleusine indica (ELEIN), 20%; in [5], 100%. Besides, the figures for the pest or weed control at 500 g/ha (in assay [6]; in the assay with Lolium perenne (LOLPE); with Setaria faberi (SETFA)) were 60%, 70% and 70%, respectively.
For `COC(=O)CC[n+]1ccc(-c2ccncc2)cn1` [Compound A203], the pest or weed control at 500 g/ha in assay [1] came out at 100%; in [2] it was 90%; in assay [3], 70%; in assay [4], 50%; in the assay with Eleusine indica (ELEIN), 60%; in assay [5] it was 50%. Besides, the pest or weed control at 500 g/ha came out at 20% in [6], 0% with Lolium perenne (LOLPE) and 60% in the assay with Setaria faberi (SETFA).
Turning to `CCOP(=O)(CCC[n+]1ccc(-c2ncccn2)cn1)OCC` [Compound A204], the pest or weed control at 500 g/ha in assay [1] was 10%; in assay [2] it was 20%; in assay [3], 0%; in assay [4], 0%; with Eleusine indica (ELEIN), 0%; in [5], 0%. For the same compound, the pest or weed control at 500 g/ha (in [6]; in the assay on Lolium perenne (LOLPE); in the assay on Setaria faberi (SETFA)) was 0% in each case.
Take `OCCC[n+]1ccc(-c2ncccn2)cn1` [Compound A206]: the pest or weed control at 500 g/ha amounted to 60% in assay [1]; 90% in [2]; 20% in assay [3]; 20% in assay [4]; 10% in the assay on Eleusine indica (ELEIN); 60% in [5]. Further, the results for the pest or weed control at 500 g/ha (in assay [6]; in the assay with Lolium perenne (LOLPE); in the assay with Setaria faberi (SETFA)) were 20%, 0% and 10%, respectively.
`N[C@@H](C[n+]1ccc(-c2ncccn2)cn1)C(=O)O` [Compound A208, [(1S)-1-carboxy-2-(4-pyrimidin-2-ylpyridazin-1-ium-1-yl)ethyl]ammonium 2,2,2-trifluoroacetate]: the pest or weed control at 500 g/ha was 100% in assay [1]; 80% in assay [2]; 40% in [3]; 30% in [4]; 60% with Eleusine indica (ELEIN); 50% in assay [5]. The results for the pest or weed control at 500 g/ha (in assay [6]; in the assay with Lolium perenne (LOLPE); in the assay with Setaria faberi (SETFA)) were 20%, 10% and 60%, respectively.
As to `CNS(=O)(=O)c1cnc(-c2cc[n+](CCC(=O)O)nc2)nc1` [Compound A209], the pest or weed control at 125 g/ha in assay [1] (Application Rate 125 g/Ha) amounted to 30%; in [2] (Application Rate 125 g/Ha) it was 10%; in assay [3] (Application Rate 125 g/Ha), 30%; in [4] (Application Rate 125 g/Ha) it was 10%; with Eleusine indica (ELEIN) (Application Rate 125 g/Ha), 0%; in [5] (Application Rate 125 g/Ha), 0%. Also, the pest or weed control at 125 g/ha in assay [6] (Application Rate 125 g/Ha) amounted to 0%; with Lolium perenne (LOLPE) (Application Rate 125 g/Ha), 10%; in the assay with Setaria faberi (SETFA) (Application Rate 125 g/Ha) it was 20%.
Regarding `Nc1cc(-c2cc[n+](CCC(=O)O)nc2)ccn1` [Compound A210], the pest or weed control at 500 g/ha stood at 70% in assay [1]; 10% in [2]; 60% in [3]; 10% in [4]; 20% in the assay with Eleusine indica (ELEIN); 10% in [5]. Further, the pest or weed control at 500 g/ha in assay [6] is 10%; in the assay with Lolium perenne (LOLPE), 20%; in the assay with Setaria faberi (SETFA), 30%.
Turning to `Cc1cc(-c2ncccn2)cn[n+]1CCS(=O)(=O)[O-]` [Compound A212, 2-(6-methyl-4-pyrimidin-2-yl-pyridazin-1-ium-1-yl)ethanesulfonate], the pest or weed control at 500 g/ha in [1] stood at 100%; in assay [2], 100%; in assay [3], 90%; in assay [4], 70%; with Eleusine indica (ELEIN), 90%; in assay [5], 100%. The pest or weed control at 500 g/ha came to 30% in assay [6], 70% in the assay with Lolium perenne (LOLPE) and 80% in the assay with Setaria faberi (SETFA).
For the compound `CN(C)S(=O)(=O)[N-]C(=O)C[n+]1ccc(-c2ncccn2)cn1` [Compound A214, dimethylsulfamoyl-[2-(4-pyrimidin-2-ylpyridazin-1-ium-1-yl)acetyl]azanide], the pest or weed control at 500 g/ha (in [1]; in assay [2]; in assay [3]; in assay [4]; with Eleusine indica (ELEIN); in assay [5]) was 100% in each case. Further, the pest or weed control at 500 g/ha in [6] amounted to 40%; with Lolium perenne (LOLPE) it was 80%; with Setaria faberi (SETFA) it was 90%.
For `O=S(=O)([O-])CCCC[n+]1ccc(-c2ncccn2)cn1` [Compound A215], the pest or weed control at 500 g/ha in [1] was determined as 100%; in [2], 60%; in assay [3], 60%; in assay [4] it was 30%; in the assay with Eleusine indica (ELEIN), 30%; in assay [5] it was 90%. In addition, the values for the pest or weed control at 500 g/ha (in [6]; with Lolium perenne (LOLPE); in the assay with Setaria faberi (SETFA)) were 60%, 20% and 20%, respectively.
